# Assay results: patent US20100076015A1, “Aminopyridine Derivatives” (VANTIA LIMITED, priority 2008, published 2010)
# pIC50: −log10 of the molar value.
# Target: T1, Human KLK1 (Homo sapiens, UniProt P06870)
# T1 construct: purchased Callbiochem (Calbiochem)
# Assay: Determination of the IC50 for KLK1 (fluorogenic substrate H-DVal-Leu-Arg-AFC)
# Assay type: biochemical
# Details: 37° C.
# Procedure, shortened: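 hKLK1 + H-DVal-Leu-Arg-AFC, 37° C, varied cpd conc. Initial rate by A410 change → residual activity → IC50.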
# T1 sequence (P06870 25-262): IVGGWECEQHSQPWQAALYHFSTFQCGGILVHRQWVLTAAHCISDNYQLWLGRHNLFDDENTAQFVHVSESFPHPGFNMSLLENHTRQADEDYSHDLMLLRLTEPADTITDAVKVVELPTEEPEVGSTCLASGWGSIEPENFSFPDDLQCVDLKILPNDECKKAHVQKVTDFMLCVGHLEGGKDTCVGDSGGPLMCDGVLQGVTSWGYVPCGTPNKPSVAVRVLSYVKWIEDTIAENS
row,SMILES,pIC50
1,"Nc1ccc(CNC(=O)[C@H](Cc2ccc(F)cc2)NC(=O)c2ncc[nH]2)cn1 [Example 287, 1H-Imidazole-2-carboxylic acid [(S)-1-[(6-amino-pyridin-3-ylmethyl)-carbamoyl]-2-(4-fluoro-phenyl)-ethyl]-amide]",7.12
2,"Nc1ccc(CNC(=O)[C@H](Cc2cccc(F)c2)NC(=O)c2ncc[nH]2)cn1 [Example 288, 1H-Imidazole-2-carboxylic acid [(S)-1-[(6-amino-pyridin-3-ylmethyl)-carbamoyl]-2-(3-fluoro-phenyl)-ethyl]-amide]",7.03
3,"Nc1ccc(CNC(=O)[C@H](Cc2cccc3ccccc23)NC(=O)c2ncc[nH]2)cn1 [Example 289, 1H-Imidazole-2-carboxylic acid {(S)-1-[(6-amino-pyridin-3-ylmethyl)-carbamoyl]-2-naphthalen-1-yl-ethyl}-amide]",7.52
4,"Cn1ccnc1C(=O)N[C@@H](Cc1ccc(F)cc1)C(=O)NCc1ccc(N)nc1 [Example 290, 1-Methyl-1H-imidazole-2-carboxylic acid [(S)-1-[(6-amino-pyridin-3-ylmethyl)-carbamoyl]-2-(4-fluoro-phenyl)-ethyl]-amide]",6.20
5,"Cc1cc(C(=O)N[C@@H](Cc2ccc(F)cc2)C(=O)NCc2ccc(N)nc2)n(C)n1 [Example 291, 2,5-Dimethyl-2H-pyrazole-3-carboxylic acid [(S)-1-[(6-amino-pyridin-3-ylmethyl)-carbamoyl]-2-(4-fluoro-phenyl)-ethyl]-amide]",6.78
6,"Cc1ccc(-c2ccc(C(=O)N[C@@H](Cc3cccc4ccccc34)C(=O)NCc3ccc(N)nc3)[nH]2)cc1 [Example 292, 5-p-Tolyl-1H-pyrrole-2-carboxylic acid {(S)-1-[(6-amino-pyridin-3-ylmethyl)-carbamoyl]-2-naphthalen-1-yl-ethyl}-amide]",7.50
7,"Cc1ccc(-c2ccc(C(=O)N[C@@H](Cc3csc4ccccc34)C(=O)NCc3ccc(N)nc3)[nH]2)cc1 [Example 293, 5-p-Tolyl-1H-pyrrole-2-carboxylic acid {(S)-1-[(6-amino-pyridin-3-ylmethyl)-carbamoyl]-2-benzo[b]thiophen-3-yl-ethyl}-amide]",7.44
8,"Cc1ccc(-c2ccc(C(=O)N[C@@H](Cc3ccc(F)c(F)c3)C(=O)NCc3ccc(N)nc3)[nH]2)cc1 [Example 294, 5-p-Tolyl-1H-pyrrole-2-carboxylic acid [(S)-1-[(6-amino-pyridin-3-ylmethyl)-carbamoyl]-2-(3,4-difluoro-phenyl)-ethyl]-amide]",7.45
9,"Cc1ccc(-c2ccc(C(=O)N[C@@H](Cc3ccccc3Cl)C(=O)NCc3ccc(N)nc3)[nH]2)cc1 [Example 295, 5-p-Tolyl-1H-pyrrole-2-carboxylic acid [(S)-1-[(6-amino-pyridin-3-ylmethyl)-carbamoyl]-2-(2-chloro-phenyl)-ethyl]-amide]",6.72
10,"Cc1ccc(-c2ccc(C(=O)N[C@@H](Cc3ccc(Cl)c(Cl)c3)C(=O)NCc3ccc(N)nc3)[nH]2)cc1 [Example 296, 5-p-Tolyl-1H-pyrrole-2-carboxylic acid [(S)-1-[(6-amino-pyridin-3-ylmethyl)-carbamoyl]-2-(3,4-dichloro-phenyl)-ethyl]-amide]",7.39
11,"Cc1ccc(-c2ccc(C(=O)N[C@@H](Cc3cccc(Cl)c3)C(=O)NCc3ccc(N)nc3)[nH]2)cc1 [Example 297, 5-p-Tolyl-1H-pyrrole-2-carboxylic acid [(S)-1-[(6-amino-pyridin-3-ylmethyl)-carbamoyl]-2-(3-chloro-phenyl)-ethyl]-amide]",7.40
12,"Nc1ccc(CNC(=O)[C@H](Cc2cccc3ccccc23)NC(=O)c2cc3ccccc3[nH]2)cn1 [Example 298, 1H-Indole-2-carboxylic acid {(S)-1-[(6-amino-pyridin-3-ylmethyl)-carbamoyl]-2-naphthalen-1-yl-ethyl}-amide]",8.03
13,"Nc1ccc(CNC(=O)[C@H](Cc2cccc3ccccc23)NC(=O)c2nc3ccccc3[nH]2)cn1 [Example 299, 1H-Benzoimidazole-2-carboxylic acid {(S)-1-[(6-amino-pyridin-3-ylmethyl)-carbamoyl]-2-naphthalen-1-yl-ethyl}-amide]",8.09
14,"COc1ccc2[nH]c(C(=O)N[C@@H](Cc3cccc4ccccc34)C(=O)NCc3ccc(N)nc3)cc2c1 [Example 300, 5-Methoxy-1H-indole-2-carboxylic acid {(S)-1-[(6-amino-pyridin-3-ylmethyl)-carbamoyl]-2-naphthalen-1-yl-ethyl}-amide]",8.13
15,"Nc1ccc(CNC(=O)[C@H](Cc2cccc3ccccc23)NC(=O)c2cc3cc(F)ccc3[nH]2)cn1 [Example 301, 5-Fluoro-1H-indole-2-carboxylic acid {(S)-1-[(6-amino-pyridin-3-ylmethyl)-carbamoyl]-2-naphthalen-1-yl-ethyl}-amide]",7.96
16,"Nc1ccc(CNC(=O)[C@H](Cc2cccc3ccccc23)NC(=O)c2cc3cc(O)ccc3[nH]2)cn1 [Example 302, 5-Hydroxy-1H-indole-2-carboxylic acid {(S)-1-[(6-amino-pyridin-3-ylmethyl)-carbamoyl]-2-naphthalen-1-yl-ethyl}-amide]",8.14

# The next lines start with the values.
row,pIC50,SMILES
1,6.62,"Cc1nc(N)ccc1CNC(=O)[C@H](Cc1cccc2ccccc12)NC(=O)c1cc2ccccc2[nH]1 [Example 303, 1H-Indole-2-carboxylic acid {(S)-1-[(6-amino-2-methyl-pyridin-3-ylmethyl)-carbamoyl]-2-naphthalen-1-yl-ethyl}-amide]"
2,6.83,"COc1ccc2[nH]c(C(=O)N[C@@H](Cc3cccc4ccccc34)C(=O)NCc3ccc(N)nc3C)cc2c1 [Example 304, 5-Methoxy-1H-indole-2-carboxylic acid {(S)-1-[(6-amino-2-methyl-pyridin-3-ylmethyl)-carbamoyl]-2-naphthalen-1-yl-ethyl}-amide]"
3,6.92,"Cc1nc(N)ccc1CNC(=O)[C@H](Cc1cccc2ccccc12)NC(=O)c1cc2cc(F)ccc2[nH]1 [Example 305, 5-Fluoro-1H-indole-2-carboxylic acid {(S)-1-[(6-amino-2-methyl-pyridin-3-ylmethyl)-carbamoyl]-2-naphthalen-1-yl-ethyl}-amide]"
4,6.79,"Cn1c(C(=O)N[C@@H](Cc2cccc3ccccc23)C(=O)NCc2ccc(N)nc2)cc2ccccc21 [Example 306, 1-Methyl-1H-indole-2-carboxylic acid {(S)-1-[(6-amino-pyridin-3-ylmethyl)-carbamoyl]-2-naphthalen-1-yl-ethyl}-amide]"
5,7.66,"Nc1ccc(CNC(=O)[C@H](Cc2cccc(C(F)(F)F)c2)NC(=O)c2cc3ccccc3[nH]2)cn1 [Example 307, 1H-Indole-2-carboxylic acid [(S)-1-[(6-amino-pyridin-3-ylmethyl)-carbamoyl]-2-(3-trifluoromethyl-phenyl)-ethyl]-amide]"
6,7.81,"COc1ccc2[nH]c(C(=O)N[C@@H](Cc3cccc(C(F)(F)F)c3)C(=O)NCc3ccc(N)nc3)cc2c1 [Example 308, 5-Methoxy-1H-indole-2-carboxylic acid [(S)-1-[(6-amino-pyridin-3-ylmethyl)-carbamoyl]-2-(3-trifluoromethyl-phenyl)-ethyl]-amide]"
7,7.37,"Cc1nc(N)ccc1CNC(=O)[C@H](Cc1cccc(C(F)(F)F)c1)NC(=O)c1cc2ccccc2[nH]1 [Example 309, 1H-Indole-2-carboxylic acid [(S)-1-[(6-amino-2-methyl-pyridin-3-ylmethyl)-carbamoyl]-2-(3-trifluoromethyl-phenyl)-ethyl]-amide]"
8,7.31,"COc1ccc2[nH]c(C(=O)N[C@@H](Cc3cccc(C(F)(F)F)c3)C(=O)NCc3ccc(N)nc3C)cc2c1 [Example 310, 5-Methoxy-1H-indole-2-carboxylic acid [(S)-1-[(6-amino-2-methyl-pyridin-3-ylmethyl)-carbamoyl]-2-(3-trifluoromethyl-phenyl)-ethyl]-amide]"
9,7.33,"Nc1ccc(CNC(=O)[C@H](Cc2cccc(F)c2)NC(=O)c2cc3ccccc3[nH]2)cn1 [Example 311, 1H-Indole-2-carboxylic acid [(S)-1-[(6-amino-pyridin-3-ylmethyl)-carbamoyl]-2-(3-fluoro-phenyl)-ethyl]-amide]"
10,7.42,"COc1ccc2[nH]c(C(=O)N[C@@H](Cc3cccc(F)c3)C(=O)NCc3ccc(N)nc3)cc2c1 [Example 312, 5-Methoxy-1H-indole-2-carboxylic acid [(S)-1-[(6-amino-pyridin-3-ylmethyl)-carbamoyl]-2-(3-fluoro-phenyl)-ethyl]-amide]"
11,8.06,"Nc1ccc(CNC(=O)[C@H](Cc2cccc(Cl)c2)NC(=O)c2cc3ccccc3[nH]2)cn1 [Example 313, 1H-Indole-2-carboxylic acid [(S)-1-[(6-amino-pyridin-3-ylmethyl)-carbamoyl]-2-(3-chloro-phenyl)-ethyl]-amide]"
12,7.81,"COc1ccc2[nH]c(C(=O)N[C@@H](Cc3cccc(Cl)c3)C(=O)NCc3ccc(N)nc3)cc2c1 [Example 314, 5-Methoxy-1H-indole-2-carboxylic acid [(S)-1-[(6-amino-pyridin-3-ylmethyl)-carbamoyl]-2-(3-chloro-phenyl)-ethyl]-amide]"
13,7.16,"Cc1nc(N)ccc1CNC(=O)[C@@H](Cc1cccc(Cl)c1)NC(=O)c1cc2ccccc2[nH]1 [Example 315, 1H-Indole-2-carboxylic acid [(R)-1-[(6-amino-2-methyl-pyridin-3-ylmethyl)-carbamoyl]-2-(3-chloro-phenyl)-ethyl]-amide]"
14,7.12,"COc1ccc2[nH]c(C(=O)N[C@@H](Cc3cccc(Cl)c3)C(=O)NCc3ccc(N)nc3C)cc2c1 [Example 316, 5-Methoxy-1H-indole-2-carboxylic acid [(S)-1-[(6-amino-2-methyl-pyridin-3-ylmethyl)-carbamoyl]-2-(3-chloro-phenyl)-ethyl]-amide]"
15,7.83,"Cc1cccc(C[C@H](NC(=O)c2cc3ccccc3[nH]2)C(=O)NCc2ccc(N)nc2)c1 [Example 317, 1H-Indole-2-carboxylic acid {(S)-1-[(6-amino-pyridin-3-ylmethyl)-carbamoyl]-2-m-tolyl-ethyl}-amide]"
